Patent US5618675A, “Methods and compositions for detecting lipopolysaccharides using CAP18 fragments” (Panorama Research, Inc., dated 1997)

How the values were obtained:
RAW 264.7 cells = test: Reversal of LPS-induced inhibition of RAW 264.7 cell proliferation; type: cell-based, murine; conditions: 5 ng/ml of LPS; FIG. 8
Experimental: When LPS is added to RAW 264.7 cells it causes a dose-dependent inhibition of proliferation with differentiation of the cells into a macrophage phenotype.

Pseudomonas aeruginosa = test: Bacterial proliferation, 3H-thymidine incorporation; type: cell-based
Experimental: (§1) Bacteria were grown in trypticase broth overnight.
(§2) To corroborate the anti-bacterial activity shown in the CFU assays, inhibition of proliferation of bacteria was tested directly using a ^3 H-thymidine incorporation assay. […] In summary although there is some strain to strain variation in the IC50, all of the Gram-negativestrains tested in two different types of assays were sensitive to these anti-microbial peptides.

Klebsiella pneumoniae = test: as above; type: cell-based
Experimental: as §1, §2

Streptococcus pyogenes = test: as above; type: cell-based
Experimental: as §1, §2

Pseudomonas apacia = test: as above; type: cell-based
Experimental: as §1, §2

Streptococcus pneumoniae = test: as above; type: cell-based
Experimental: as §1, §2

E. coli (HB101) = test: as above; type: cell-based
Experimental: as §1, §2

[1] = system: Staphylococcus aureus, coagulase positive; test: as above; type: cell-based
Experimental: as §1, §2

human mononuclear cells = test: LPS-induced tissue factor by human mononuclear cells; type: cell-based; conditions: for Δ Units (%): LPS alone 100, 960 min
Experimental: Human mononuclear cells were separated from citrated peripheral blood by centrifugation over Sodium-metrizoate-Ficoll (lymphocyte Separation Medium, Japan Antibody Institute, Gumma). The resulting mixed mononuclear cell suspension was washed 3 times with RPMI 1640 media. Cell suspension (1×10^6 /ml) was stimulated with LPS for 16 to 18 hr.
Veronal buffered saline (VBS) was added to the cell pellet, lysed by 3 cycles of freeze/thaw and sonicated for 10 sec with a hand-held sonicator microbe (Handy Sonic, model UR-20P, Tomy Seiko LTD, Tokyo). Tissue factor activity was tested in modified unactivated partial thromboplastin time (7). One tenth ml of cell lysate (1×10^6 /ml) was preincubated with mouse plasma at 37° C. for 3 min. Then 0.1 ml of 25 mM-CaCl2 which contains phospholipid was added to the mixture and clotting time was measured using a fibrometer (Bio Quest Division, Becton Dickinson, Cokeysville, USA). A standard curve obtained from serial two-fold dilutions of rabbit brain thromboplastic (Simplastin, Ono Pharmaceutical Co.) was used to transpose tissue factor activity into arbitrary tissue factor units (1 μg/ml) suspension of rabbit brain was assigned a value of 1,000 units).
The mean tissue factor units+standard error was determined from three to four samples. Student's t test for unpair data was used to determine the statistically significant differences. A two-tailed P value of <0.05 was considered significant.
S. minnesota SmoothLPS (2 μg/ml) was preincubated with equal volume of
each LPSbinding protein (28HA) at 37° C. for 45 minutes, and the
mixture was added to the cells and cultured for 16 hours.

[2] = RNIP 6 μg/ml (so in the source)
[3] = first experiment, LPS 0.1 μg/ml
[4] = second experiment, LPS 0.1 μg/ml

Question: Which results are given for “RNIP: reactive nitrogen inhibitory protein, amino acids 135-171 of SEQ ID NO:4 (rabbit CAP18 C-terminus); purified from granulocytes or synthetic (#197) (GLRKRLRKFRNKIKEKLKKIGQKIQGLLPKLAPRTDY)”?
Answer: effect on LPS-induced inhibition of proliferation (RAW 264.7 cells): reverses the inhibition of proliferation; Percent inhibition of proliferation (Pseudomonas aeruginosa; RNIP 1.25 μg/ml): 82%; Percent inhibition of proliferation (Pseudomonas aeruginosa; RNIP 2.5 μg/ml): 96%; Percent inhibition of proliferation (Pseudomonas aeruginosa; RNIP 5.0 μg/ml): 99%; Percent inhibition of proliferation (Pseudomonas aeruginosa; [2]): 75%; Percent inhibition of proliferation (Klebsiella pneumoniae; RNIP 1.25 μg/ml): 14%; Percent inhibition of proliferation (Klebsiella pneumoniae; RNIP 2.5 μg/ml): 17%; Percent inhibition of proliferation (Klebsiella pneumoniae; RNIP 5.0 μg/ml): 60%; Percent inhibition of proliferation (Klebsiella pneumoniae; [2]): 4%; Percent inhibition of proliferation (Streptococcus pyogenes; RNIP 1.25 μg/ml): 79%; Percent inhibition of proliferation (Streptococcus pyogenes; RNIP 2.5 μg/ml): 90%; Percent inhibition of proliferation (Streptococcus pyogenes; RNIP 5.0 μg/ml): 96%; Percent inhibition of proliferation (Streptococcus pyogenes; [2]): 74%; Percent inhibition of proliferation (Pseudomonas apacia; RNIP 1.25 μg/ml): 80%; Percent inhibition of proliferation (Pseudomonas apacia; RNIP 2.5 μg/ml): 99%; Percent inhibition of proliferation (Pseudomonas apacia; RNIP 5.0 μg/ml): 99%; Percent inhibition of proliferation (Pseudomonas apacia; [2]): 81%; Percent inhibition of proliferation (Streptococcus pneumoniae; RNIP 1.25 μg/ml): 47%; Percent inhibition of proliferation (Streptococcus pneumoniae; RNIP 2.5 μg/ml): 68%; Percent inhibition of proliferation (Streptococcus pneumoniae; RNIP 5.0 μg/ml): 93%; Percent inhibition of proliferation (Streptococcus pneumoniae; [2]): 31%; Percent inhibition of proliferation (E. coli (HB101); RNIP 1.25 μg/ml): 88%; Percent inhibition of proliferation (E. coli (HB101); RNIP 2.5 μg/ml): 99%; Inhibition (%) of proliferation (E. coli (HB101); RNIP 2.5 μg/ml, FCS 0 %): 94 ± 10.3%; Inhibition (%) of proliferation (E. coli (HB101); RNIP 2.5 μg/ml, FCS 1 %): 91 ± 10.9%; Inhibition (%) of proliferation (E. coli (HB101); RNIP 2.5 μg/ml, FCS 5 %): 87 ± 3.1%; Inhibition (%) of proliferation (E. coli (HB101); RNIP 2.5 μg/ml, FCS 10 %): 78 ± 5.5%; Percent inhibition of proliferation (E. coli (HB101); RNIP 5.0 μg/ml): 99%; Percent inhibition of proliferation (E. coli (HB101); [2]): 81%; Percent inhibition of proliferation ([1]; RNIP 1.25 μg/ml): 57%; Percent inhibition of proliferation ([1]; RNIP 2.5 μg/ml): 72%; Percent inhibition of proliferation ([1]; RNIP 5.0 μg/ml): 83%; Percent inhibition of proliferation [1, 2]: 23%; Inhibition (%) (human mononuclear cells; [3]): 51%; Tissue Factor, figure in parentheses (relative to unstimulated = 1.0) (human mononuclear cells; first experiment, LPS 0.1 μg/ml, LPS alone 16.6): 9.0; Δ Units (%) (human mononuclear cells; [3]): 49%; Δ Units (human mononuclear cells; first experiment, LPS 0.1 μg/ml, LPS alone 17118): 8342; Tissue Factor (human mononuclear cells; first experiment, LPS 0.1 μg/ml, LPS alone 18214 ± 4192, RNIP 2 HA units, CAP-18 1 HA unit): 9438 ± 293 Units × 10^3 /3.6 × 10^4 cells; Inhibition (%) (human mononuclear cells; [4]): 41%; Tissue Factor, figure in parentheses (relative to unstimulated = 1.0) (human mononuclear cells; second experiment, LPS 0.1 μg/ml, LPS alone 14.7): 9.0; Δ Units (%) (human mononuclear cells; [4]): 59%; Δ Units (human mononuclear cells; second experiment, LPS 0.1 μg/ml, LPS alone 6726): 3950; Tissue Factor (human mononuclear cells; second experiment, LPS 0.1 μg/ml, LPS alone 7218 ± 264, HA units HP-1 4, HP-2 2, RNIP 2, CAP-18 1): 4442 ± 982 Units × 10^3 /3.6 × 10^4 cells; Tissue Factor, figure in parentheses (relative to unstimulated = 1.0) (human mononuclear cells; second experiment, no LPS): 1.3; Δ Units (human mononuclear cells; second experiment, no LPS): 144; Tissue Factor (human mononuclear cells; second experiment, no LPS, unstimulated 492 ± 75): 636 ± 141 Units × 10^3 /3.6 × 10^4 cells
